Measured values as given in ChEMBL document CHEMBL6109129, “Discovery of Conformationally Constrained Dihydro Benzo-Indole Derivatives as Metallo-β-Lactamase Inhibitors to Tackle Multidrug-Resistant Bacterial Infections” (J Med Chem, 2025).
The source made the active and inactive calls. The calls are words filed in the database; no cut-off is given here.

Legend:
Klebsiella pneumoniae [1] = experiment: Anti-infective activity against carbapenem-resistant Klebsiella pneumoniae ATCC BAA 2146 expressing NDM-1 infected in neutropenic female BALB/c mouse deep thigh infection model assessed as reduction in bacterial count at 20 mg/kg,sc pre-infected with bacteria for 2 hrs followed by compound addition and measured after 26 hrs in presence of imipenem; format: functional
Escherichia coli [2] = experiment: Synergistic antibacterial activity against carbapenem-resistant Escherichia coli 567975 assessed as reduction in microbial growth at 16 ug/ml measured after 16 to 18 hrs in presence of meropenem by microbial dilution method; format: functional; details: dose 16 µg/ml, time 16-18 hrs
Klebsiella pneumoniae [3] = experiment: Synergistic antibacterial activity against carbapenem-resistant Klebsiella pneumoniae 552439 assessed as reduction in microbial growth at 16 ug/ml measured after 16 to 18 hrs in presence of imipenem by microbial dilution method; format: functional; details: dose 16 µg/ml, time 16-18 hrs
Klebsiella pneumoniae [4] = experiment: Synergistic antibacterial activity against carbapenem-resistant Klebsiella pneumoniae 565345 assessed as reduction in microbial growth at 16 ug/ml measured after 16 to 18 hrs in presence of meropenem by microbial dilution method; format: functional; details: dose 16 µg/ml, time 16-18 hrs
Escherichia coli [5] = experiment: Synergistic antibacterial activity against carbapenem-resistant Escherichia coli BAA-2469 assessed as reduction in microbial growth at 0.5 ug/ml measured after 16 to 18 hrs in presence of imipenem by microbial dilution method; format: functional; details: dose 0.5 µg/ml, time 16-18 hrs
Escherichia coli [6] = experiment: Synergistic antibacterial activity against carbapenem-resistant Escherichia coli 567975 assessed as reduction in microbial growth at 4 ug/ml measured after 16 to 18 hrs in presence of meropenem by microbial dilution method; format: functional; details: dose 4 µg/ml, time 16-18 hrs
Escherichia coli [7] = experiment: Synergistic antibacterial activity against carbapenem-resistant Escherichia coli 571307 assessed as reduction in microbial growth at 16 ug/ml measured after 16 to 18 hrs in presence of imipenem by microbial dilution method; format: functional; details: dose 16 µg/ml, time 16-18 hrs
[8] = system: Klebsiella pneumoniae subsp. pneumoniae; experiment: Synergistic antibacterial activity against carbapenem-resistant Klebsiella pneumoniae BAA-2470 assessed as reduction in microbial growth at 16 ug/ml measured after 16 to 18 hrs in presence of meropenem by microbial dilution method; format: functional; details: dose 16 µg/ml, time 16-18 hrs
Escherichia coli [9] = experiment: Synergistic antibacterial activity against carbapenem-resistant Escherichia coli 571307 assessed as reduction in microbial growth at 4 ug/ml measured after 16 to 18 hrs in presence of imipenem by microbial dilution method; format: functional; details: dose 4 µg/ml, time 16-18 hrs
[10] = system: Klebsiella pneumoniae subsp. pneumoniae; experiment: Synergistic antibacterial activity against carbapenem-resistant Klebsiella pneumoniae subsp. pneumoniae BAA-2472 assessed as reduction in microbial growth at 8 ug/ml measured after 16 to 18 hrs in presence of meropenem by microbial dilution method; format: functional; details: dose 8 µg/ml, time 16-18 hrs
[11] = system: Klebsiella pneumoniae subsp. pneumoniae; experiment: Synergistic antibacterial activity against carbapenem-resistant Klebsiella pneumoniae BAA-2472 assessed as reduction in microbial growth at 16 ug/ml measured after 16 to 18 hrs in presence of meropenem by microbial dilution method; format: functional; details: dose 16 µg/ml, time 16-18 hrs
Escherichia coli [12] = experiment: Synergistic antibacterial activity against carbapenem-resistant Escherichia coli BAA-2469 assessed as reduction in microbial growth at 0.5 ug/ml measured after 16 to 18 hrs in presence of meropenem by microbial dilution method; format: functional; details: dose 0.5 µg/ml, time 16-18 hrs
Escherichia coli [13] = experiment: Synergistic antibacterial activity against carbapenem-resistant Escherichia coli BAA-2469 assessed as reduction in microbial growth at 16 ug/ml measured after 16 to 18 hrs in presence of imipenem by microbial dilution method; format: functional; details: dose 16 µg/ml, time 16-18 hrs
Klebsiella pneumoniae [14] = experiment: Synergistic antibacterial activity against Klebsiella pneumoniae ATCC BAA 2146 expressing NDM-1 measured after 16 to 18 hrs in presence of meropenem by microbial dilution method; format: functional, organism-based; details: time 16-18 hrs
Klebsiella pneumoniae [15] = experiment: Synergistic antibacterial activity against carbapenem-resistant Klebsiella pneumoniae BAA-2473 assessed as reduction in microbial growth at 16 ug/ml measured after 16 to 18 hrs in presence of imipenem by microbial dilution method; format: functional; details: dose 16 µg/ml, time 16-18 hrs
[16] = Metabolic stability in human liver microsomes assessed as parent compound remaining at 1 uM measured at 60 mins in presence of NADPH by LC-MS/MS analysis; format: ADME, Microsome; details: read-out: Stability
Escherichia coli [17] = experiment: Synergistic antibacterial activity against carbapenem-resistant Escherichia coli 541588 assessed as reduction in microbial growth at 4 ug/ml measured after 16 to 18 hrs in presence of imipenem by microbial dilution method; format: functional; details: dose 4 µg/ml, time 16-18 hrs
[18] = Apparent permeability the compound in PBS buffer at pH 7.4 measured after 5 hrs by LC-MS/MS analysis; format: ADME; details: not told
Enterobacter cloacae = experiment: Synergistic antibacterial activity against carbapenem-resistant Enterobacter cloacae BAA-2468 assessed as reduction in microbial growth at 8 ug/ml measured after 16 to 18 hrs in presence of imipenem by microbial dilution method; format: functional; details: dose 8 µg/ml, time 16-18 hrs
[19] = system: Klebsiella pneumoniae subsp. pneumoniae; experiment: Synergistic antibacterial activity against carbapenem-resistant Klebsiella pneumoniae subsp. pneumoniae BAA-2470 assessed as reduction in microbial growth at 8 ug/ml measured after 16 to 18 hrs in presence of imipenem by microbial dilution method; format: functional; details: dose 8 µg/ml, time 16-18 hrs
[20] = system: Klebsiella pneumoniae subsp. pneumoniae; experiment: Synergistic antibacterial activity against carbapenem-resistant Klebsiella pneumoniae subsp. pneumoniae BAA-2472 assessed as reduction in microbial growth at 8 ug/ml measured after 16 to 18 hrs in presence of imipenem by microbial dilution method; format: functional; details: dose 8 µg/ml, time 16-18 hrs
[21] = Metabolic stability in mouse liver microsomes assessed as parent compound remaining at 1 uM measured at 60 mins in presence of NADPH by LC-MS/MS analysis; format: ADME, Microsome; details: read-out: Stability
[22] = system: Klebsiella pneumoniae subsp. pneumoniae; experiment: Synergistic antibacterial activity against carbapenem-resistant Klebsiella pneumoniae subsp. pneumoniae BAA-2472 assessed as reduction in microbial growth at 0.5 ug/ml measured after 16 to 18 hrs in presence of imipenem by microbial dilution method; format: functional; details: dose 0.5 µg/ml, time 16-18 hrs
[23] = system: Klebsiella pneumoniae subsp. pneumoniae; experiment: Synergistic antibacterial activity against carbapenem-resistant Klebsiella pneumoniae BAA-2472 assessed as reduction in microbial growth at 16 ug/ml measured after 16 to 18 hrs in presence of imipenem by microbial dilution method; format: functional; details: dose 16 µg/ml, time 16-18 hrs
Klebsiella pneumoniae [24] = experiment: Synergistic antibacterial activity against Klebsiella pneumoniae ATCC BAA 2146 expressing NDM-1 measured after 16 to 18 hrs in presence of imipenem by microbial dilution method; format: functional, organism-based; details: time 16-18 hrs
[25] = system: Klebsiella pneumoniae subsp. pneumoniae; experiment: Synergistic antibacterial activity against carbapenem-resistant Klebsiella pneumoniae subsp. pneumoniae BAA-2470 assessed as reduction in microbial growth at 0.5 ug/ml measured after 16 to 18 hrs in presence of meropenem by microbial dilution method; format: functional; details: dose 0.5 µg/ml, time 16-18 hrs
Escherichia coli [26] = experiment: Synergistic antibacterial activity against carbapenem-resistant Escherichia coli 571307 assessed as reduction in microbial growth at 16 ug/ml measured after 16 to 18 hrs in presence of meropenem by microbial dilution method; format: functional; details: dose 16 µg/ml, time 16-18 hrs
Escherichia coli [27] = experiment: Synergistic antibacterial activity against carbapenem-resistant Escherichia coli 541588 assessed as reduction in microbial growth at 16 ug/ml measured after 16 to 18 hrs in presence of meropenem by microbial dilution method; format: functional; details: dose 16 µg/ml, time 16-18 hrs
Klebsiella pneumoniae [28] = experiment: Synergistic antibacterial activity against carbapenem-resistant Klebsiella pneumoniae 565345 assessed as reduction in microbial growth at 4 ug/ml measured after 16 to 18 hrs in presence of imipenem by microbial dilution method; format: functional; details: dose 4 µg/ml, time 16-18 hrs
[29] = Octanol/aqueous buffer distribution coefficient, log D of the compound at pH 7.4 incubated for 4 hrs under shaking condition by HPLC analysis; format: physicochemical
Klebsiella pneumoniae [30] = experiment: Synergistic antibacterial activity against carbapenem-resistant Klebsiella pneumoniae BAA-2473 assessed as reduction in microbial growth at 16 ug/ml measured after 16 to 18 hrs in presence of meropenem by microbial dilution method; format: functional; details: dose 16 µg/ml, time 16-18 hrs

Structure (SMILES): COc1ccc(Cl)cc1-c1c(C(=O)O)[nH]c2c1CCc1ccccc1-2
- Activity (Klebsiella pneumoniae [1]): ~2.2 log10CFU/ml
- MIC (Escherichia coli [2]): < 0.5 µg/mL
- MIC (Klebsiella pneumoniae [3]): 1 µg/mL
- MIC (Klebsiella pneumoniae [4]): 1 µg/mL
- MIC (Escherichia coli [5]): 32 µg/mL
- MIC (Escherichia coli [6]): 1 µg/mL
- MIC (Escherichia coli [7]): 2 µg/mL
- MIC [8]: 4 µg/mL
- MIC (Escherichia coli [9]): 4 µg/mL
- MIC [10]: 64 µg/mL
- MIC [11]: 32 µg/mL
- MIC (Escherichia coli [12]): 16 µg/mL
- MIC (Escherichia coli [13]): 4 µg/mL
- Activity (Klebsiella pneumoniae [14]): Active
- MIC (Klebsiella pneumoniae [15]): 8 µg/mL
- remaining at 1 h, 1 µM [16]: 56%
- MIC (Escherichia coli [17]): 1 µg/mL
- Papp at 5 h [18]: 14 ×10⁻⁶ cm/s
- MIC (Enterobacter cloacae): 64 µg/mL
- MIC [19]: 2 µg/mL
- MIC [20]: 32 µg/mL
- remaining at 1 h, 1 µM [21]: 44.2%
- MIC [22]: 64 µg/mL
- MIC [23]: 8 µg/mL
- Activity (Klebsiella pneumoniae [24]): Active
- MIC [25]: 32 µg/mL
- MIC (Escherichia coli [26]): 0.5 µg/mL
- MIC (Escherichia coli [27]): 1 µg/mL
- MIC (Klebsiella pneumoniae [28]): 32 µg/mL
- logD at 4 h [29]: 2.58
- MIC (Klebsiella pneumoniae [30]): 8 µg/mL
